Assay: Deblocking of ester in pH 10.0 carbonate buffer with hydroxylamine (A+C), reaction half-life and rate enhancement
Format: physicochemical
Conditions: for Ratio of the A+B half-life to the A+C half-life (rate enhancement): pH 10.0, 25° C.; for reactivity with hydroxylamine vs comparisons: from Table I
Method: Model studies were conducted on esters E-1 through E-6 to determine the possible rate enhancement which could be attained by using a dinucleophile rather than a mononucleophile to promote the removal from a phenolic moiety of a blocking group of this invention. Aqueous solutions A, B, and C, each containing 50% by volume of acetonitrile were prepared as follows (a separate solution A for each ester):
Solution A: 2.5 × 10^-4 M ester (or 2.5 × 10^-5 M E-
Solution B: 25% by volume carbonate buffer
(pH 10.0, ionic strength 0.75);
Solution C: Solution B with added 0.05M
Then equal volumes of A and B (or A and C) were mixed at 25° C. to give a pH 10.0 solution and the reaction was followed by spectrophotometric measurements of the phenol (290 nm) or p-nitrophenol (402 nm) produced with time. In each case a reaction half-life (t1/2) was calculated from the equation t/1/2 =1n(2)/k, where 1n(2) is the natural logarithm of 2 and k is the pseudo first-order rate constant calculated for the reaction. Smaller half-lives thus indicate more rapid reactions. The A+B combination provides an alkaline solution in which the main reactant is hydroxide ion (a mononucleophile) while in the A.C combination the active reactant is hydroxylamine (a dinucleophile). A ratio of the A+B half-life to the A+C half-life provides a measure of rate enhancement due to participation of hydroxylamine in the deblocking reaction.

Row | SMILES | Ratio of the A+B half-life to the A+C half-life (rate enhancement) | reactivity with hydroxylamine vs comparisons
1 | CC1(C(=O)Oc2ccc([N+](=O)[O-])cc2)CN(C(=O)OCc2ccc([N+](=O)[O-])cc2)CCC1=O (centres unmarked) [Example E-3] | 3.6 × 10^4 | –
2 | CC(=O)CC(C)(C)C(=O)Oc1ccccc1 [Example E-6, reference compound] | 1.7 × 10^2 | –
3 | CC1(C(=O)Oc2ccc([N+](=O)[O-])cc2)CCCCC1=O (centres unmarked) [Example E-4, reference compound] | 2.3 × 10^5 | –
4 | CN(C(=O)N1CCC(=O)C(C)(C(=O)Oc2ccc([N+](=O)[O-])cc2)C1)c1ccccc1 (centres unmarked) [Example E-1] | 3.8 × 10^4 | much more reactive with the dinucleophile hydroxylamine than are the comparisons
5 | COc1ccc(C(=O)N2CCC(=O)C(C)(C(=O)Oc3ccc([N+](=O)[O-])cc3)C2)cc1 (centres unmarked) [Example E-2] | 2.9 × 10^4 | much more reactive with the dinucleophile hydroxylamine than are the comparisons
6 | CC(=O)C(C)(C)C(=O)Oc1ccccc1 [Example E-5, reference compound] | 3.7 × 10^4 | –
